The results in this text go back to paper PMC10804372, “Degradation by Design: New Cyclin K Degraders from Old CDK Inhibitors” (ACS Chemical Biology, 2024).

pKd: −log10 of the molar value.

In test [1] the test system is Cyclin K. Nature of the test: Cyclin K levels by Western blot after single-concentration treatment. The class given is cell-based, human. The conditions noted are these: HEK293T cells, 1 μM for 2 h; for cyclin K degradation: Western blot; for Remaining Cyclin K (%): quantified from Western blots, mean ± SD, three independent experiments. The protocol:
(§1) HEK293T human […] kidney cells were cultured in DMEM (Gibco/Life Technologies), containing 25 mM D-glucose, 4 mM L-glutamine, and 1 mM sodium pyruvate, and supplemented with 10% (v/v) FBS and 1% nonessential amino acids (Gibco/Life Technologies). Cells were incubated at 37 °C in a humidified atmosphere with 5% CO2.
(§2) Cells were washed with PBS and lysed (20 mM HEPES pH 7.5, 10% glycerol, 0.4 M KCl, 0.4% Triton X-100, 15 mM EDTA, and 1× protease and phosphatase inhibitors). The insoluble fraction was removed by centrifugation. Protein quantification was performed using a Bradford assay and compared to a BSA calibration curve. Equal amounts of lysates were run on SDS–PAGE 4–12% Bis–Tris Protein Gels (NuPAGE, Thermo Fisher Scientific) and then transferred onto Immobilon-P PVDF Membrane (Millipore, IPVH00010) using a Mini Trans-Blot Cell (Bio-Rad, 1703930). The membranes were blocked with 5% bovine albumin serum (BSA) in Tris-buffered saline with Tween 20 (TBS-T) and incubated with primary antibodies overnight at 4 °C. The membranes were washed three times with TBS-T and incubated with HRP-conjugated secondary antibody (BioRad) for 2 h. Membranes were washed again three times with TBS-T before being developed using Pierce ECL Western Blotting Substrate (Thermo, 32106) and visualized using LI-COR. Antibodies were purchased from Cell Signaling Technology: anti-GAPDH (D4C6R) and anti-DDB1 (D4C8) or Bethyl Laboratories: anti-Cyclin K (A301-939A). The following HRP-linked secondary antibodies were used by dilution in 5% BSA/TBS-T: antirabbit IgG (BioRad, 5213–2504) and antimouse IgG (BioRad, 103005).
(§3) Unedited blots containing the marker lane are available on request. Western blots were quantified using ImageJ. Cyclin K levels were normalized using GAPDH as a loading control. DC50 values were calculated from concentration–response curves using nonlinear regression fit to a 4-parameter curve by GraphPad Prism.

The target of a further test is T1, CDK12 (Homo sapiens, UniProt Q9NYV4).
T1 construct: purchased Eurofins DiscoverX (KINOMEscan service)
T1 sequence (Q9NYV4 whole entry): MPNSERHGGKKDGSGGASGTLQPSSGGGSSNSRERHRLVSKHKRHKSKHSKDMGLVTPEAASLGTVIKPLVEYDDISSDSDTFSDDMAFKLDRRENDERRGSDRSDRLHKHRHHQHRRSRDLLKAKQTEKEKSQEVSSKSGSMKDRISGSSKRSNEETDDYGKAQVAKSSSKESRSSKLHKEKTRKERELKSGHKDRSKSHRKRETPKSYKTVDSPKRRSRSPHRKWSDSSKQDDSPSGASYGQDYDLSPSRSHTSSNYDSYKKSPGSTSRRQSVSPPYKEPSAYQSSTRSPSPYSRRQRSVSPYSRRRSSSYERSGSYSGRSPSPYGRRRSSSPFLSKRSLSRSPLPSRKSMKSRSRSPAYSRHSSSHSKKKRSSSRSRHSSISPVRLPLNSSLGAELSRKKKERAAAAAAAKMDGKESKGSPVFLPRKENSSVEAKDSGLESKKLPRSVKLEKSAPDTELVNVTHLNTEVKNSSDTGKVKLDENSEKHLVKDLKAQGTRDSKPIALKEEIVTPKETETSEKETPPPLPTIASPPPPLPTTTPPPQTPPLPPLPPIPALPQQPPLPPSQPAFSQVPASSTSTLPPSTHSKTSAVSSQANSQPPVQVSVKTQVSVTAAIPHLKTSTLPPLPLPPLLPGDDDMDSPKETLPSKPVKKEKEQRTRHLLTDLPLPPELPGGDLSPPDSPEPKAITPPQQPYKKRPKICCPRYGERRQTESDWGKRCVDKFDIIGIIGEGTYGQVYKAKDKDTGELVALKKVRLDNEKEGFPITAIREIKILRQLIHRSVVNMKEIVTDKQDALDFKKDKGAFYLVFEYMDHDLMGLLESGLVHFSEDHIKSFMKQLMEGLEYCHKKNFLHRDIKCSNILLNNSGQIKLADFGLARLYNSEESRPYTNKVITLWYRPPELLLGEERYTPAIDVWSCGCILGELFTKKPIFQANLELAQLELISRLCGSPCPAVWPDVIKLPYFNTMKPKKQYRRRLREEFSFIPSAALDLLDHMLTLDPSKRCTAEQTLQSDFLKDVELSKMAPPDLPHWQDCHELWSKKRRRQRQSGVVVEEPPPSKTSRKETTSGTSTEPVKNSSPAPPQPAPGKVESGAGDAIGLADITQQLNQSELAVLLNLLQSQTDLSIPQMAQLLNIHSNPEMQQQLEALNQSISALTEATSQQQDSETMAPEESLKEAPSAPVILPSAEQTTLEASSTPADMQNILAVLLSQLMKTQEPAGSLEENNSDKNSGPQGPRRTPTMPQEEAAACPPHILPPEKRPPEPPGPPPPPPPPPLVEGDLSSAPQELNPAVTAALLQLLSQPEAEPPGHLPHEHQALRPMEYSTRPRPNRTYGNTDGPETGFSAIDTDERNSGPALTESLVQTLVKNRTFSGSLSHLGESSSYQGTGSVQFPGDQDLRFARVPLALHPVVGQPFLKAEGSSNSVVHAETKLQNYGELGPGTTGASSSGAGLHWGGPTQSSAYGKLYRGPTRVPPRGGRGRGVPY
The test is described as follows: KINOMEscan binding assay (Eurofins DiscoverX). The conditions noted are these: for pKd: KINOMEscan.

Test [2] has as its system Cyclin K. The test is described as follows: Cyclin K degradation concentration-response (DC50, DMax) by Western blot. The class given is cell-based, human. As to conditions: for DMax (%) / DC50: HEK293T, Western blot quantification, 3 biological repeats; for DC50: read-out: CycK DC50; for fold decrease in degradation ability versus pyridine counterpart: furan analogues vs 1 (CR8), 36, 40. The method, then:
With the aim of comparing the degradation ability of the new analogues, we derived DC50 values by using Western blotting (Table 5). […] This approach has been previously used to improve the potency of BCL6 degraders.[33] We therefore also measured CDK12 affinity using the KINOMEscan binding assay (Table 5).[34]
as §1, §2, §3

For `CC[C@H](CO)Nc1nc(NCc2ccc(-c3ccc(F)cn3)cc2)c2ncn(C(C)C)c2n1` [compound 6], in the test on Cyclin K [1], the “cyclin K degradation” value was “reduction in degradation activity” and the “Remaining Cyclin K (%)” value is 42 ± 8%.
As to `Cc1ccnc(-c2ccc(CNc3cc(N4CCCCC4CCO)nc4c(Br)cnn34)cc2)c1` (centres unmarked) [compound 38], the “Remaining Cyclin K (%)” value in the test on Cyclin K [1] turned out to be 3 ± 4%.
Regarding `CC[C@H](CO)Nc1nc(NCc2ccc(N3CCNCC3)cc2)c2ncn(C(C)C)c2n1` [compound 24], in the test on Cyclin K [1], the “cyclin K degradation” value is on record as “significantly reduced degradation ability” and the “Remaining Cyclin K (%)” value is reported as 86 ± 20%.
The corresponding values for `CC[C@H](CO)Nc1nc(NCc2ccc(-c3ncccc3F)cc2)c2ncn(C(C)C)c2n1` [compound 18] are “able to induce degradation” and 17 ± 13%.
The corresponding values for `CC[C@H](CO)Nc1nc(NCc2ccc(-c3cccnc3)cc2)c2ncn(C(C)C)c2n1` [compound 4] are “comparable to that of CR8” and 6 ± 4%.
On the same counts, the results for `CC[C@H](CO)Nc1nc(NCc2ccc(-c3ccoc3)cc2)c2ncn(C(C)C)c2n1` [compound 28] are “complete degradation” and 2 ± 2%.
For the compound `CC[C@H](CO)Nc1nc(NCc2ccc(Br)cc2)c2ncn(C(C)C)c2n1` [compound 33], in the test on Cyclin K [1], the “cyclin K degradation” value is reported as “little to no degradation” and the “Remaining Cyclin K (%)” value is 73 ± 29%.
Consider `CC[C@H](CO)Nc1nc(NCc2ccc(-c3ccc(C(=O)NC45CC6CC(CC(C6)C4)C5)cn3)cc2)c2ncn(C(C)C)c2n1` [compound 10], for which the “Remaining Cyclin K (%)” value in the test with Cyclin K [1] was 94 ± 8%.
As for `CC[C@H](CO)Nc1nc(NCc2ccc(-c3cccc(F)n3)cc2)c2ncn(C(C)C)c2n1` [compound 11], in the test with Cyclin K [1], the “cyclin K degradation” value is given as “complete degradation” and the “Remaining Cyclin K (%)” value came to 2 ± 3%.
Regarding `O=C(NCc1ccc(-c2ccccn2)cc1)c1n[nH]cc1NC(=O)c1c(Cl)cccc1Cl` [compound 40], the “fold difference (weaker) in CDK12 binding affinity versus compound 36” value at CDK12 (40 vs 36) came out at 250 fold. Moreover, the pKd at CDK12 was 6.00. Moreover, in the test on Cyclin K [2], the “DMax (%)” value is over 95% and the half-maximal degradation concentration (DC50) came out at 21 nM. The “Remaining Cyclin K (%)” value in the test with Cyclin K [1] was found to be 1 ± 1%.
With `CC[C@H](CO)Nc1nc(NCc2ccc(-c3ccc(CC(C)C)cc3)cc2)c2ncn(C(C)C)c2n1` [compound 9], the “Remaining Cyclin K (%)” value with Cyclin K [1] is listed as 79 ± 22%.
In turn, `O=C(NCc1ccccc1)c1n[nH]cc1NC(=O)c1c(Cl)cccc1Cl` [compound 44] had a negative logarithm of the Kd (pKd) at CDK12 of 5.26.
With `CC[C@H](CO)Nc1nc(NCc2ccc(C3=CCCC3)cc2)c2ncn(C(C)C)c2n1` [compound 26], in the test on Cyclin K [1], the “cyclin K degradation” value is reported as “complete cyclin K degradation” and the “Remaining Cyclin K (%)” value is on record as 5 ± 4%.
On the same counts, the results for `CC[C@H](CO)Nc1nc(NCc2ccc(C3=CCCCC3)cc2)c2ncn(C(C)C)c2n1` [compound 22] are “partial degradation” and 22 ± 5%.
The corresponding values for `CC[C@H](CO)Nc1nc(NCc2ccc(-c3cc(C#N)ccn3)cc2)c2ncn(C(C)C)c2n1` [compound 17] are “able to successfully induce degradation” and 2 ± 2%.
For the compound `CC[C@H](CO)Nc1nc(NCc2ccc(-c3ccncc3)cc2)c2ncn(C(C)C)c2n1` [compound 5], in the test on Cyclin K [1], the “cyclin K degradation” value is “comparable to that of CR8” and the “Remaining Cyclin K (%)” value was 9 ± 6%.
The corresponding values for `CC[C@H](CO)Nc1nc(NCc2ccc(-c3ccc(C)cn3)cc2)c2ncn(C(C)C)c2n1` [compound 7] are “abrogated degradation further” and 93 ± 6%.
On to `C=Cc1ccc(CNc2nc(N[C@H](CC)CO)nc3c2ncn3C(C)C)cc1` [compound 34], for which, in the test with Cyclin K [1], the “cyclin K degradation” value was “little to no degradation” and the “Remaining Cyclin K (%)” value is given as 63 ± 22%.
As for `OCCC1CCCCN1c1cc(NCc2ccc(-c3ccccn3)cc2)n2ncc(Br)c2n1` (centres unmarked) [compound 36], the “fold better CDK12 affinity versus CR8/seliciclib-core analogue” value at CDK12 (36 vs 1, 37 vs 21) is given as 100 fold. Besides, at CDK12, the negative logarithm of the Kd (pKd) was 8.40. For the same compound, the “improvement in degradation as measured by DC50 versus compound 1” value with Cyclin K [2] (36 vs 1) is given as “fivefold”. Further, in the test with Cyclin K [2], the “DMax (%)” value is given as over 95% and the DC50 worked out at 10 nM. For the same compound, the “Remaining Cyclin K (%)” value in the test on Cyclin K [1] came to 2 ± 1%.
On to `CCc1ccc(CNc2nc(N[C@H](CC)CO)nc3c2ncn3C(C)C)cc1` [compound 35], for which, in the test on Cyclin K [1], the “cyclin K degradation” value is “little to no degradation” and the “Remaining Cyclin K (%)” value is recorded as 90 ± 14%.
`CC[C@H](CO)Nc1nc(NCc2ccc(-c3cc(C)ccn3)cc2)c2ncn(C(C)C)c2n1` [compound 14]: the “Remaining Cyclin K (%)” value in the test on Cyclin K [1] stood at 1 ± 0%.
`OCCC1CCCCN1c1cc(NCc2ccccc2)n2ncc(Br)c2n1` (centres unmarked) [compound 43] gave a negative logarithm of the Kd (pKd) at CDK12 of 8.00.
As to `O=C(NCc1ccc(-c2ccco2)cc1)c1n[nH]cc1NC(=O)c1c(Cl)cccc1Cl` [compound 42], the pKd at CDK12 is 6.00. In the test on Cyclin K [2], the “DMax (%)” value is on record as over 95%, the half-maximal degradation concentration (DC50) stood at 168 nM and the “fold decrease in degradation ability versus pyridine counterpart” value was 4–8 fold. Also, in the test with Cyclin K [1], the “Remaining Cyclin K (%)” value is listed as 20 ± 14%.
In the case of `CC[C@H](CO)Nc1nc(NCc2ccc(-c3cccc(C)n3)cc2)c2ncn(C(C)C)c2n1` [compound 12], at CDK12, the negative logarithm of the Kd (pKd) is 6.66. In the test with Cyclin K [2], the “DMax (%)” value was over 95% and the DC50 amounted to 106 nM. For the same compound, in the test on Cyclin K [1], the “cyclin K degradation” value is reported as “complete degradation” and the “Remaining Cyclin K (%)” value was found to be 4 ± 4%.
In the case of `CC[C@H](CO)Nc1nc(NCc2ccc(C)cc2)c2ncn(C(C)C)c2n1` [compound 32], in the test on Cyclin K [1], the “cyclin K degradation” value is reported as “little to no degradation” and the “Remaining Cyclin K (%)” value worked out at 89 ± 8%.
As for `CC[C@H](CO)Nc1nc(NCc2ccc(-c3cc(F)ccn3)cc2)c2ncn(C(C)C)c2n1` [compound 13], the “Remaining Cyclin K (%)” value in the test on Cyclin K [1] amounted to 3 ± 2%.
With `CC[C@H](CO)Nc1nc(NCc2ccc(-c3ccccc3)cc2)c2ncn(C(C)C)c2n1` [compound 3], in the test with Cyclin K [1], the “cyclin K degradation” value was “comparable to that of CR8” and the “Remaining Cyclin K (%)” value was found to be 8 ± 7%.
The corresponding values for `CC[C@H](CO)Nc1nc(NCc2ccc(-c3ncccc3C)cc2)c2ncn(C(C)C)c2n1` [compound 19] are “reduced degradation ability compared to CR8” and 37 ± 16%.
In the case of `CCc1ccnc(-c2ccc(CNc3nc(N[C@H](CC)CO)nc4c3ncn4C(C)C)cc2)c1` [compound 16], in the test with Cyclin K [1], the “cyclin K degradation” value is recorded as “able to successfully induce degradation” and the “Remaining Cyclin K (%)” value stood at 6 ± 4%.
On the same counts, the results for `CC[C@H](CO)Nc1nc(NCc2ccc(C3CCCC3)cc2)c2ncn(C(C)C)c2n1` [compound 27] are “only partial degradation” and 31 ± 16%.
Compound `OCCC1CCCCN1c1cc(NCc2ccc(-c3ccco3)cc2)n2ncc(Br)c2n1` (centres unmarked) [compound 39] had a negative logarithm of the Kd (pKd) at CDK12 of 7.77. In the test with Cyclin K [2], the “DMax (%)” value is listed as over 95%, the DC50 was 72 nM and the “fold decrease in degradation ability versus pyridine counterpart” value is listed as 4–8 fold. For the same compound, the “Remaining Cyclin K (%)” value in the test with Cyclin K [1] amounted to 4 ± 4%.
